Experimental data reported in publication PMC11647725, “Discovery of 4-(5-Membered)Heteroarylether-6-methylpicolinamide Negative Allosteric Modulators of Metabotropic Glutamate Receptor Subtype 5” (ACS Medicinal Chemistry Letters, 2024).

Columns and labels:
[1] = molecular target: T1, CYP 2D6 (Homo sapiens, UniProt P10635); experiment: P450 inhibition in pooled human liver microsomes; assay type: in vitro ADME; conditions: pooled HLM, NADPH, CYP-specific probe substrates; listed as VU6043653
T1 construct: from tissue; host or cells: pooled human liver microsomes (per the earlier reading)

[2] = test system: Purinergic P2Y, Non-Selective; experiment: Lead Profiling Screen, Eurofins Panlabs; assay type: binding; conditions: rat
[3] = molecular target: T2, human mGlu1 (Homo sapiens, UniProt Q13255); experiment: mGlu selectivity, calcium mobilization assay; assay type: cell-based
T2 construct: expressed in transfected cells; host or cells: TREx-293, tetracycline-inducible
Protocol: (§1) the presence of 5% CO2, the dye solutions were removed and replaced with assay buffer using a microplate washer, leaving 20 μL of assay buffer in the cell plate. The compound, agonist, and cell plates were placed inside the Functional Drug Screening System (FDSS 7000 or uCell, Hamamatsu, Japan) to measure the calcium flux. Assays were run at 37 °C. A triple add protocol was used to measure Ca kinetics. Briefly, after establishment of a fluorescence baseline for 2 seconds (excitation, 480 nm; emission, 530 nm), 20 µL of test compound was added to the cells and the response was measured for 140 seconds. This was followed by the addition of 10 µL (5X) of an EC20 concentration of Glu agonist, and the response of the cells was measured for 125 seconds. A third addition occurred by adding 12 uL (5X) of an EC80 concentration of Glu agonist and the response of the cells was measured for 90 seconds. […] Calcium fluorescence was recorded as fold over basal fluorescence and raw data were normalized to the maximal response to Glu agonist (ECMax). Compound-evoked decreases in calcium response in the presence of Glu EC80 agonist were determined as inhibition activity, and potency (IC50) and maximum inhibition responses (% GluMin) of compounds were determined using a four-parameter logistical equation using GraphPad Prism (La Jolla, CA) or the Dotmatics software platform (Woburn, MA) : […]

[4] = molecular target: T3, human mGlu4 (Homo sapiens, UniProt Q14833); experiment: mGlu selectivity, calcium mobilization assay; assay type: cell-based
T3 construct: expressed in transfected cells
Protocol: as §1

[5] = test system: Thyroid Hormone; experiment: Lead Profiling Screen, Eurofins Panlabs; assay type: binding; conditions: rat

T1 sequence (P10635 whole entry): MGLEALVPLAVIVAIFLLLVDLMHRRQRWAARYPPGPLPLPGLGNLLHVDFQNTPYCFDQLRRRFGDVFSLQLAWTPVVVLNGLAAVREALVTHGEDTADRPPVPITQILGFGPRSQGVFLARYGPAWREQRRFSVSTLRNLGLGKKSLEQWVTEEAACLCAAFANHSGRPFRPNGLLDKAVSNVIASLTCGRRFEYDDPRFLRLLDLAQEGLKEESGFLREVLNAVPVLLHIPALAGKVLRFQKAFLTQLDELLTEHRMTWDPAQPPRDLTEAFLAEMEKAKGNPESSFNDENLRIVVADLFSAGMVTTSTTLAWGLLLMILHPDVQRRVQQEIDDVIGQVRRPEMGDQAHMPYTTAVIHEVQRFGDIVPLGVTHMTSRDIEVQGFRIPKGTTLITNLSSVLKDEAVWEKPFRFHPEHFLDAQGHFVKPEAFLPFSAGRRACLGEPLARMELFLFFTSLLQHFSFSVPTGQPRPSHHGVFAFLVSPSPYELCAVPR
T3 sequence (Q14833 33-912): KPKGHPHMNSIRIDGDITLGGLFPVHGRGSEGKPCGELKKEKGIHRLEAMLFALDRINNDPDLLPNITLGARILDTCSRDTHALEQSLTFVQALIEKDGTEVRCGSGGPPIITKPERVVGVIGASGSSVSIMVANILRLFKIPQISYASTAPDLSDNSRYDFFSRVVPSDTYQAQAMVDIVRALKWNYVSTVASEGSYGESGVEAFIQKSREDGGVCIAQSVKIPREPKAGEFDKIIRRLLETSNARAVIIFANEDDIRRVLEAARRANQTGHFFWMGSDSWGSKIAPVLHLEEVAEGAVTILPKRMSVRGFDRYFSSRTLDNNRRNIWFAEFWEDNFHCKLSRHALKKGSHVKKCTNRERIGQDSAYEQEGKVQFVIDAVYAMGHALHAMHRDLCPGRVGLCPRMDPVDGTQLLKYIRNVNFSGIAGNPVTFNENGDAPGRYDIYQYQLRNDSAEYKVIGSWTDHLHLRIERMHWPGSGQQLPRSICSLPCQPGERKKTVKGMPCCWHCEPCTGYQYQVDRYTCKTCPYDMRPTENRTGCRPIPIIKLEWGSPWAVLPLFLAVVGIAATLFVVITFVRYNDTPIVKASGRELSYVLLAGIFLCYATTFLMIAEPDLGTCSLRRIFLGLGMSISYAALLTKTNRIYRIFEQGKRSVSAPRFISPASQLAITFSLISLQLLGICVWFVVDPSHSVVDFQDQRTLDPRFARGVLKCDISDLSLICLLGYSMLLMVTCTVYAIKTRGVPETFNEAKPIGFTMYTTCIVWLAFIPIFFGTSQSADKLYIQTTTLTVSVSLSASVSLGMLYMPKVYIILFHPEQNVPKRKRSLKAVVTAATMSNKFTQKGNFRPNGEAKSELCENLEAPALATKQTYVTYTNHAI
T2 sequence (Q13255 19-1194): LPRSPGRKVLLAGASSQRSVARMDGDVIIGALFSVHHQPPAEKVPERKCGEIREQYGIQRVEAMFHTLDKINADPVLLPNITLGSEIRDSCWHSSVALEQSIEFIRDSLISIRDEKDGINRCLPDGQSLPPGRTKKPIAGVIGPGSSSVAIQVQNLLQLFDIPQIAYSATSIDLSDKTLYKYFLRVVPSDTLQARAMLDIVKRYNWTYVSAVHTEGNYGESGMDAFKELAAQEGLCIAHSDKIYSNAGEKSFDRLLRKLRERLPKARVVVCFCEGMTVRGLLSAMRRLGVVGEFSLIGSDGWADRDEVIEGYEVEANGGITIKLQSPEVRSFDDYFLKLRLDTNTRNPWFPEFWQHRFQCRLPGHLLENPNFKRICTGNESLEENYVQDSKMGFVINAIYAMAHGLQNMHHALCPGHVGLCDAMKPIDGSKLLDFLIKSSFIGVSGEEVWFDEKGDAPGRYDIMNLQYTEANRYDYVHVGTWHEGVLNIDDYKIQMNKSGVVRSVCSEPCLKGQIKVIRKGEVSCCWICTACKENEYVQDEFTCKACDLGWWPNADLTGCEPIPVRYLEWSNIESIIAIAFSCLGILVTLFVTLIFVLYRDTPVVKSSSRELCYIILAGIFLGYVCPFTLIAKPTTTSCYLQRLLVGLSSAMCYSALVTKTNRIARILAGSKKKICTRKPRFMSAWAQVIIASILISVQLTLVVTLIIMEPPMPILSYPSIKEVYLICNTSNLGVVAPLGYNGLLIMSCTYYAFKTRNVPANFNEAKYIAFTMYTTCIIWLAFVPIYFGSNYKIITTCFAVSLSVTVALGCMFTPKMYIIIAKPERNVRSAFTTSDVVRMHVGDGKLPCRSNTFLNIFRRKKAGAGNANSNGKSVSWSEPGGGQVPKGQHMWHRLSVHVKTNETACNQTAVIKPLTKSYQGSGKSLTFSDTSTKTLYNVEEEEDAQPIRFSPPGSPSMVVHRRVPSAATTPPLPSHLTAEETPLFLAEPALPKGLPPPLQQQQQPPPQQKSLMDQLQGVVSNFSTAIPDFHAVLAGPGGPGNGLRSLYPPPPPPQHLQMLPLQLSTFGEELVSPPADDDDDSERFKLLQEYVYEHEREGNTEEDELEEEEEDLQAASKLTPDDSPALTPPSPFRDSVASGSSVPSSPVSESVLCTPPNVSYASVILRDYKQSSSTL

Cc1cc(Oc2cnn(C)c2)cc(C(=O)Nc2ccc(F)cn2)n1 [22iA]
IC50 [1]: ≥ 30 µM
% inh at 10 μM [2]: 9%
IC50, human mGlu1 [3]: inactive
IC50, human mGlu4 [4]: inactive
% inh at 10 μM [5]: -2%
